Experimental data taken from publication PMC12673082 (Nature Communications, 2025).

Tests used:
[1] = molecular target: pdP2X7 F95A (Ailuropoda melanoleuca, UniProt G1M6C4, F96A); conditions: pd7 F95A, 10 μM
[2] = test system: pdP2X7 Y298A; assay: Whole-cell patch clamp, pdP2X7 mutant; type: cell-based, giant panda; conditions: pd7Y298A, 30 μM
[3] = molecular target: pdP2X7 P96G (Ailuropoda melanoleuca, UniProt G1M6C4, P97G); conditions: pd7 P96G, 10 μM
[4] = test system: pdP2X7 Y295A; assay: Whole-cell patch clamp, pdP2X7 mutant; type: cell-based, giant panda; conditions: pd7Y295A, 30 μM
[5] = molecular target: pdP2X7 F103A (Ailuropoda melanoleuca, UniProt G1M6C4, F104A); conditions: pd7 F103A, 10 μM
[6] = molecular target: pdP2X7 (Ailuropoda melanoleuca, UniProt G1M6C4); assay: Whole-cell patch clamp, ATP-evoked current, transfected HEK293; type: cell-based, giant panda (Ailuropoda melanoleuca)
[7] = molecular target: pdP2X7 V312A (Ailuropoda melanoleuca, UniProt G1M6C4, V313A); conditions: pd7 V312A, 10 μM
[8] = molecular target: T1, mP2X7 (Mus musculus, UniProt Q9Z1M0); assay: Whole-cell patch clamp, ATP-evoked current, transfected HEK293; type: cell-based; conditions: HEK293, read-out: inhibition rate
T1 sequence (Q9Z1M0 1-595): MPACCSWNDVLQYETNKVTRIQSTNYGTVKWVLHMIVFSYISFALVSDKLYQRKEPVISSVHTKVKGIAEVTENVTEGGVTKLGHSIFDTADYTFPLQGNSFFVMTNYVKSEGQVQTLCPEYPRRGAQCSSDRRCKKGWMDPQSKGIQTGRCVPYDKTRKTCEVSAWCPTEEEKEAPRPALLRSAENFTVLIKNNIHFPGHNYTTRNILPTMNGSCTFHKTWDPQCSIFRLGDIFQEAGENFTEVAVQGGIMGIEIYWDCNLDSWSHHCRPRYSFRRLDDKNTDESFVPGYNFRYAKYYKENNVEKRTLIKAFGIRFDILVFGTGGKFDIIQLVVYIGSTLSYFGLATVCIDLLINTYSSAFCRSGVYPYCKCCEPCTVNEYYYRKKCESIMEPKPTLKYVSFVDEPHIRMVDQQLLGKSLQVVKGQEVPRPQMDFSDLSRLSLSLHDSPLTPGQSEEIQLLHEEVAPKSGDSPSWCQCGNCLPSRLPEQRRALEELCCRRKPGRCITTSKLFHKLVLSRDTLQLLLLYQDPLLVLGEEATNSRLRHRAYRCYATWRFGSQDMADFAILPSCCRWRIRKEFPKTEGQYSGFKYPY

[9] = test system: pdP2X7 F103W; assay: Whole-cell patch clamp, pdP2X7 mutant; type: cell-based, giant panda; conditions: pd7F103W, 30 μM
[10] = molecular target: hP2X2 (Homo sapiens, UniProt Q9UBL9); assay: Whole-cell patch clamp, ATP-evoked current, transfected HEK293; type: cell-based; conditions: HEK293, read-out: inhibition rate
[11] = molecular target: pdP2X7 M105F (Ailuropoda melanoleuca, UniProt G1M6C4, M106F); assay: cell-based
Sequence of pdP2X7 M105F (G1M6C4 2-595 M106F): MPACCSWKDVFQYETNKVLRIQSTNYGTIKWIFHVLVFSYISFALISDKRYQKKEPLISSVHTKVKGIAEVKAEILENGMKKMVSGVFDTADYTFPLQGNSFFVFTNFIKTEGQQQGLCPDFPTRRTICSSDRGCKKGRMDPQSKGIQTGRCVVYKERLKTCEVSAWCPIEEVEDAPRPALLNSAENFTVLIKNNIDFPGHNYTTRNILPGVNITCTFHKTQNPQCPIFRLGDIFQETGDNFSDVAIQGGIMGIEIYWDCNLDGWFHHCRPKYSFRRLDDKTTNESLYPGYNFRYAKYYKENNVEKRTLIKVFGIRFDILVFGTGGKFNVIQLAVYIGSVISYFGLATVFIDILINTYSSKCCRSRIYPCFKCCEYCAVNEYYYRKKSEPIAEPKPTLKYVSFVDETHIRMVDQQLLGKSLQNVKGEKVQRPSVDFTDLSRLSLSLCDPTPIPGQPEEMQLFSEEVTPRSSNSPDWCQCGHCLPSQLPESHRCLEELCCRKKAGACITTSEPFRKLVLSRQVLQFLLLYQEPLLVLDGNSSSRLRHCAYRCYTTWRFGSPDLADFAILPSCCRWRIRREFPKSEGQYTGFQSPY

Sequence of pdP2X7 (G1M6C4 2-595): as the sequence (G1M6C4 2-595 M106F) above, with F105M counted along it
Sequence of pdP2X7 V312A (G1M6C4 2-595 V313A): as the sequence (G1M6C4 2-595 M106F) above, with F105M, V312A counted along it
Sequence of pdP2X7 F95A (G1M6C4 2-595 F96A): as the sequence (G1M6C4 2-595 M106F) above, with F95A, F105M counted along it
Sequence of pdP2X7 F103A (G1M6C4 2-595 F104A): as the sequence (G1M6C4 2-595 M106F) above, with F103A, F105M counted along it
Sequence of hP2X2 (Q9UBL9 whole entry): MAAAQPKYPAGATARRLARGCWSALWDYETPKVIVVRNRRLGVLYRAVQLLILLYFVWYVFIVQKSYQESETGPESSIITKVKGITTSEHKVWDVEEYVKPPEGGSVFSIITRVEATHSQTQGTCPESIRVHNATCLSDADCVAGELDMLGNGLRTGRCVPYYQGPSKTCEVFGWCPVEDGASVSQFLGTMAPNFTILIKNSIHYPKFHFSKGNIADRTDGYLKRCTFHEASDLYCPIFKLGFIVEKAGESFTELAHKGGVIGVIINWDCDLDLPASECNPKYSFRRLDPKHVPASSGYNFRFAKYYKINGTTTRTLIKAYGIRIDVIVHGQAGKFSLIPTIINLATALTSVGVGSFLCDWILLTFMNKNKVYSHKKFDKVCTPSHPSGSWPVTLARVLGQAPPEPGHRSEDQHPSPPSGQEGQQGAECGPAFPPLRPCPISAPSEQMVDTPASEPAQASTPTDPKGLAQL
Sequence of pdP2X7 P96G (G1M6C4 2-595 P97G): as the sequence (G1M6C4 2-595 M106F) above, with P96G, F105M counted along it

C=CC[C@@H]1c2ccc(OC)c(OC)c2CN2CCc3cc4c(cc3[C@H]12)OCO4 [PSFL1191, (13R,13aS)-13-allyl-9,10-dimethoxy-5,8,13,13a-tetrahydro-6H-1,3dioxolo[4,5-g]isoquinolino[3,2-a]isoquinoline]
inhibitory effect on ATP (1 mM)-induced activation (inhibition ratio) [1]: did not
inhibition rate [2]: ≤ 50%
inhibitory effect on ATP (1 mM)-induced activation (inhibition ratio) [3]: significantly attenuated
inhibition rate [4]: ≤ 50%
inhibitory effect on ATP (1 mM)-induced activation (inhibition ratio) [5]: significantly attenuated
IC50 [6]: 0.754 ± 0.018 µM
apparent affinity, times lower than that of JNJ-54175446 ([6]; pdP2X7): 10-20 times
inhibitory effect on ATP (1 mM)-induced activation (inhibition ratio) [7]: significantly attenuated
inhibition at 30 µM [8]: 13.3 ± 3.04%
inhibition rate [9]: ≤ 50%
inhibition at 30 µM [10]: 3.09 ± 7.46%
IC50 [11]: 2.06 µM
